Here are results for six molecules from ChEMBL document CHEMBL4828764, “Lead Optimization and Structure-Activity Relationship Studies on Myeloid Ecotropic Viral Integration Site 1 Inhibitor” (J Med Chem, 2021).

Calls of active or inactive are those of the source. The calls are words filed in the database; no cut-off is given here.

Type in all cases: cell-based
In series [1] the target is T1, Homeobox protein Meis1 (Homo sapiens) (UniProt O00470).
T1 sequence (whole entry): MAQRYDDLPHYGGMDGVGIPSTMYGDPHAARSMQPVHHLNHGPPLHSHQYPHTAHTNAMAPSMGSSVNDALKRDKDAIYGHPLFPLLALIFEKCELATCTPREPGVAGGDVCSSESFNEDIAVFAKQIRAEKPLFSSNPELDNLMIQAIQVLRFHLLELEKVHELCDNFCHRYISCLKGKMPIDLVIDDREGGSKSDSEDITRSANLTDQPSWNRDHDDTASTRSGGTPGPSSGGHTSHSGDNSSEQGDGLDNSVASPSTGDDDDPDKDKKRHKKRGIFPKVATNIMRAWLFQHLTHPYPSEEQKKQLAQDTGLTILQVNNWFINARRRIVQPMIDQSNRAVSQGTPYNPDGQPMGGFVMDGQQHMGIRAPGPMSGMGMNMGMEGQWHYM
The experiment in a line: Inhibition of MEIS1 (unknown origin) expressed in HEK293T cells co-expressing MEIS-Luc-pGL2 assessed as downregulation of p21 gene expression by measuring mRNA level at 10 uM incubated for 2 days by RT-qPCR analysis. Also on record: scale not given: the % may be the effect or the level left. The note with it: time 2.0 day. For orientation: In qPCR the cycle at which signal appears reflects the starting amount.

A short description of series [2]: Cytotoxicity against HDF assessed as cell viability at 10 uM incubated for 72 hrs by MTS assay. The settings on record: human, HDF (NHDF) cells, read-out: Activity. Background: Tetrazolium dyes change colour on reduction, which living cells bring about.
Series [3] deals with T1, Homeobox protein Meis1 (Homo sapiens). In words: Inhibition of MEIS1 (unknown origin) expressed in HEK293T cells co-expressing MEIS-Luc-pGL2 assessed as luciferase activity at 10 uM incubated for 48 hrs by luciferase reporter assay related to […] control. Also noted: scale not given: the % may be the effect or the level left. On the technique in general: A reporter such as luciferase makes a cellular process visible.

The target is the same in series [4]. The experiment in a line: Inhibition of MEIS1 (unknown origin) expressed in HEK293T cells co-expressing MEIS-Luc-pGL2 assessed as luciferase activity at 10 uM incubated for 48 hrs by luciferase reporter assay related to protein content. Also noted: scale not given: the % may be the effect or the level left.
Series [5] shares this target. In words: Inhibition of MEIS1 (unknown origin) expressed in HEK293T cells co-expressing MEIS-Luc-pGL2 assessed as downregulation of Hif-Ialpha gene expression measuring mRNA level at 10 uM incubated for 2 days by RT-qPCR analysis. The settings on record: time 2.0 day.
Series [6] has the same target. The experiment in a line: Inhibition of MEIS1 (unknown origin) expressed in HEK293T cells co-expressing MEIS-Luc-pGL2 assessed as downregulation of Meis1 gene expression measuring mRNA level at 10 uM incubated for 2 days by RT-qPCR analysis. Also on record: scale not given: the % may be the effect or the level left. The settings on record: time 2.0 day.

Consider `Cc1cccc(NC(=O)c2ccc(OCC(=O)NCc3ccc(Cl)cc3)cc2)c1C`, for which the Activity in series [1] was 47.4%; in series [3], 34%; in series [4], 38%; in series [6] it was 35.9%. Further, in series [2], the viability at 72 h, 10 µM was 73.5%. In addition, the outcome in series [5] was Active.
For `COc1ccc(CNC(=O)COc2ccc(C(=O)Nc3cc(C(F)(F)F)ccc3F)cc2)cc1`, the Activity in series [1] turned out to be 5.2%; in series [3] it was 30%; in series [4], 28%; in series [6], 6.6%. The viability at 72 h, 10 µM in series [2] worked out at 105%. For the same molecule, the result in series [5] was Active.
`COc1ccc(CNC(=O)COc2ccc(C(=O)Nc3cccc(C)c3C)cc2)cc1OC`: the Activity in series [1] was 21.7%; in series [3] it was 35%; in series [4], 49%; in series [6], 9.5%. For the same molecule, in series [2], the viability at 72 h, 10 µM stood at 83.9%. The result in series [5] was Active.
Consider `Cc1cccc(NC(=O)c2ccc(OCC(=O)NCc3ccc(F)cc3)cc2)c1C`, for which the Activity in series [1] amounted to 25.6%; in series [3], 36%; in series [4] it was 40%; in series [6], 24.3%. Moreover, in series [2], the viability at 72 h, 10 µM was 90.4%. In addition, the outcome in series [5] was Active.
Regarding `Cc1cccc(NC(=O)c2ccc(OCC(=O)NCc3ccccc3Cl)cc2)c1C`, the Activity in series [1] turned out to be 25.3%; in series [3], 34%; in series [4], 43%; in series [6], 13.7%. Also, the viability at 72 h, 10 µM in series [2] amounted to 64.8%. Further, the outcome in series [5] was Active.
Turning to `O=C(COc1ccc(C(=O)Nc2cccc(Cl)c2)cc1)NCc1ccc(Cl)cc1`, the Activity turned out to be 19.7% in series [1], 32% in series [3], 51% in series [4] and 4.5% in series [6]. Moreover, the viability at 72 h, 10 µM in series [2] came out at 86.4%. Further, the outcome in series [5] was Active.
